{"source": "BindingDB's records for doi:10.1021/acsmedchemlett.0c00047", "about": "(Centre of Experimental Medicine, 2020)", "data": [{"assay": "Inhibition of SERCA1 in rat INS-1E cells assessed as reduction in cell viability incubated for 24 hrs by MTT assay", "units": {"IC50": "µM"}, "values": [{"smiles": "CC1(C)Oc2cc3oc(-c4cc(O)cc(O)c4)cc3cc2CC1O", "note": "(stereo not given) [Moracin P]", "IC50": 109}, {"smiles": "CC(C)=CCc1c(-c2ccc(O)cc2O)oc2c3c(cc(O)c2c1=O)OC(C)(C)C=C3", "note": "[Morusin, 3]", "IC50": 28.7}, {"smiles": "COc1cc(O)c([C@@H]2CC(=O)c3c(O)cc(O)cc3O2)cc1C/C=C(\\C)CCC=C(C)C", "IC50": 64.8}, {"smiles": "Cc1cc2c3c(c1)-c1c(O)cc(-c4cc5ccc(O)cc5o4)cc1O[C@@]3(c1ccc(O)cc1O)Oc1cc(O)ccc1-2", "IC50": 18.2}, {"smiles": "CC(C)(O)C1Cc2cc3cc(-c4cc(O)cc(O)c4)oc3cc2O1", "note": "(stereo not given) [moracin O]", "IC50": 111}]}]}
